Experimental data taken from article PMC5218480 (PLoS ONE, 2017).

Test system: MV-4-11 cells
Assay: Gene expression microarray analysis (Affymetrix PrimeView) and GSEA
Type: cell-based, human
Parameters: RFU PODN (11730768_x_at) / Fold change /veh PODN (11730768_x_at) / RFU LINC00158 (11744669_a_at) / Fold change /veh LINC00158 (11744669_a_at) / RFU DUSP10 (11751237_a_at) / Fold change /veh DUSP10 (11751237_a_at) / RFU ID3 (11757404_x_at) / Fold change /veh ID3 (11757404_x_at) / RFU PLEKHG5 (11737974_s_at) / Fold change /veh PLEKHG5 (11737974_s_at) / RFU LRRC4B (11730491_at) / Fold change /veh LRRC4B (11730491_at) / RFU GIMAP4 (11747438_a_at) / Fold change /veh GIMAP4 (11747438_a_at) / RFU KRT8 (11758183_x_at) / Fold change /veh KRT8 (11758183_x_at) / RFU CNN1 (11734310_a_at) / Fold change /veh CNN1 (11734310_a_at) / RFU VPS37D (11726825_at) / Fold change /veh VPS37D (11726825_at) / RFU C10orf10 (11716522_x_at) / Fold change /veh C10orf10 (11716522_x_at) / RFU KIR2DL2 /// KIR2DL4 /// KIR2DL5A /// KIR2DL5B /// KIR2DS1 /// KIR2DS2 /// KIR2DS3 /// KIR2DS4 /// KIR3DL3 /// KIR3DL3 /// KIR3DS1 (11738374_at) / Fold change /veh KIR2DL2 /// KIR2DL4 /// KIR2DL5A /// KIR2DL5B /// KIR2DS1 /// KIR2DS2 /// KIR2DS3 /// KIR2DS4 /// KIR3DL3 /// KIR3DL3 /// KIR3DS1 (11738374_at) / RFU C1QL1 (11718748_at) / Fold change /veh C1QL1 (11718748_at) / RFU TMPRSS4 (11747572_a_at) / Fold change /veh TMPRSS4 (11747572_a_at) / RFU HAMP (11756126_x_at) / Fold change /veh HAMP (11756126_x_at) / RFU RNFT2 (11725882_a_at) / Fold change /veh RNFT2 (11725882_a_at) / RFU NR4A2 (11747474_a_at) / Fold change /veh NR4A2 (11747474_a_at) / RFU ABCC12 (11746883_a_at) / Fold change /veh ABCC12 (11746883_a_at) / RFU TMEM136 (11760407_x_at) / Fold change /veh TMEM136 (11760407_x_at) / RFU CLDN22 /// WWC2 (11732394_at) / Fold change /veh CLDN22 /// WWC2 (11732394_at) / RFU HLA-DPB1 (11760878_x_at) / Fold change /veh HLA-DPB1 (11760878_x_at) / RFU SPINT1 (11716480_a_at) / Fold change /veh SPINT1 (11716480_a_at) / RFU GAP43 (11754022_s_at) / Fold change /veh GAP43 (11754022_s_at) / RFU A4GNT (11735810_at) / Fold change /veh A4GNT (11735810_at) / RFU PRB3 (11715151_x_at) / Fold change /veh PRB3 (11715151_x_at) / RFU TUBB4B (11761932_at) / Fold change /veh TUBB4B (11761932_at) / RFU CAPN14 (11732068_a_at) / Fold change /veh CAPN14 (11732068_a_at) / RFU TMCC2 (11721928_a_at) / Fold change /veh TMCC2 (11721928_a_at) / RFU IRGQ (11745062_a_at) / Fold change /veh IRGQ (11745062_a_at) / RFU FAM174B (11720279_a_at) / Fold change /veh FAM174B (11720279_a_at) / RFU TMPRSS4 (11748680_a_at) / Fold change /veh TMPRSS4 (11748680_a_at) / RFU FAM212B (11763350_a_at) / Fold change /veh FAM212B (11763350_a_at) / RFU PLEKHG5 (11743358_a_at) / Fold change /veh PLEKHG5 (11743358_a_at) / RFU ZSCAN30 (11745921_a_at) / Fold change /veh ZSCAN30 (11745921_a_at) / RFU CMKLR1 (11741424_a_at) / Fold change /veh CMKLR1 (11741424_a_at) / RFU LOC101060620 /// MAPK8IP1 (11723275_at) / Fold change /veh LOC101060620 /// MAPK8IP1 (11723275_at) / RFU SPTSSB (11747773_x_at) / Fold change /veh SPTSSB (11747773_x_at) / RFU PRSS12 (11739890_at) / Fold change /veh PRSS12 (11739890_at) / RFU BIN1 (11741810_x_at) / Fold change /veh BIN1 (11741810_x_at) / RFU WNT11 (11732464_a_at) / Fold change /veh WNT11 (11732464_a_at) / RFU C10orf10 (11716521_a_at) / Fold change /veh C10orf10 (11716521_a_at) / RFU C5orf56 (11738089_at) / Fold change /veh C5orf56 (11738089_at) / RFU CYB561 (11721691_x_at) / Fold change /veh CYB561 (11721691_x_at) / RFU ANKRD19P (11752326_a_at) / Fold change /veh ANKRD19P (11752326_a_at) / RFU OR2T12 /// OR2T33 /// OR2T8 (11738714_s_at) / Fold change /veh OR2T12 /// OR2T33 /// OR2T8 (11738714_s_at) / RFU VCAN (11748164_a_at) / Fold change /veh VCAN (11748164_a_at) / RFU JSRP1 (11732532_at) / Fold change /veh JSRP1 (11732532_at) / RFU KRTAP10-11 (11738290_x_at) / Fold change /veh KRTAP10-11 (11738290_x_at) / RFU MYO3A (11730013_a_at) / Fold change /veh MYO3A (11730013_a_at) / RFU EBF3 (11725865_a_at) / Fold change /veh EBF3 (11725865_a_at) / RFU CAMK2N1 (11719241_x_at) / Fold change /veh CAMK2N1 (11719241_x_at) / RFU C5orf56 (11738088_a_at) / Fold change /veh C5orf56 (11738088_a_at) / RFU OLFML3 (11715873_a_at) / Fold change /veh OLFML3 (11715873_a_at) / RFU LOC100653217 /// NTM (11731650_a_at) / Fold change /veh LOC100653217 /// NTM (11731650_a_at) / RFU MAPK11 (11762145_a_at) / Fold change /veh MAPK11 (11762145_a_at) / RFU FIZ1 (11724087_x_at) / Fold change /veh FIZ1 (11724087_x_at) / RFU OASL (11726364_x_at) / Fold change /veh OASL (11726364_x_at) / RFU SOX15 (11748057_x_at) / Fold change /veh SOX15 (11748057_x_at) / RFU CD79A (11719716_a_at) / Fold change /veh CD79A (11719716_a_at) / RFU HIST1H1D (11736915_at) / Fold change /veh HIST1H1D (11736915_at) / RFU CASKIN2 (11723855_a_at) / Fold change /veh CASKIN2 (11723855_a_at) / RFU LOC730098 (11760151_x_at) / Fold change /veh LOC730098 (11760151_x_at) / RFU OR4N2 (11742367_at) / Fold change /veh OR4N2 (11742367_at) / RFU PRRT2 (11749266_a_at) / Fold change /veh PRRT2 (11749266_a_at) / RFU SNX32 (11753110_a_at) / Fold change /veh SNX32 (11753110_a_at) / RFU CDHR5 (11726645_a_at) / Fold change /veh CDHR5 (11726645_a_at) / RFU RCAN1 (11760418_a_at) / Fold change /veh RCAN1 (11760418_a_at) / RFU FAM167A (11723789_a_at) / Fold change /veh FAM167A (11723789_a_at) / RFU FAM26E (11764081_at) / Fold change /veh FAM26E (11764081_at) / RFU ISYNA1 (11749810_s_at) / Fold change /veh ISYNA1 (11749810_s_at) / RFU ACY1 (11761880_at) / Fold change /veh ACY1 (11761880_at) / RFU 11764098_at / Fold change /veh 11764098_at / RFU SAMD14 (11745864_x_at) / Fold change /veh SAMD14 (11745864_x_at) / RFU NPB (11741838_a_at) / Fold change /veh NPB (11741838_a_at) / RFU TMPRSS6 (11731388_a_at) / Fold change /veh TMPRSS6 (11731388_a_at) / RFU KRTAP10-2 (11738614_at) / Fold change /veh KRTAP10-2 (11738614_at) / RFU ARHGAP8 /// PRR5-ARHGAP8 (11727945_x_at) / Fold change /veh ARHGAP8 /// PRR5-ARHGAP8 (11727945_x_at) / RFU KRTAP5-7 /// NADSYN1 (11734609_at) / Fold change /veh KRTAP5-7 /// NADSYN1 (11734609_at) / RFU RASL12 (11751679_a_at) / Fold change /veh RASL12 (11751679_a_at) / RFU CDKN2B (11736163_a_at) / Fold change /veh CDKN2B (11736163_a_at) / RFU PRF1 (11729649_at) / Fold change /veh PRF1 (11729649_at) / RFU, ZNF638 /// ZNF638-IT1 / Fold change vs veh, ZNF638 /// ZNF638-IT1 / RFU, PANK3 / Fold change vs veh, PANK3 / RFU, SH3YL1 / Fold change vs veh, SH3YL1 / RFU, ZEB2 / Fold change vs veh, ZEB2 / RFU, NRIP1 / Fold change vs veh, NRIP1 / RFU, PTTG1IP / Fold change vs veh, PTTG1IP / RFU, CAPN2 / Fold change vs veh, CAPN2 / RFU, MED14 / Fold change vs veh, MED14 / RFU, SNORA58 / Fold change vs veh, SNORA58 / RFU, C1orf63 / Fold change vs veh, C1orf63 / RFU, LRRFIP1 / Fold change vs veh, LRRFIP1 / RFU, NDUFAF7 / Fold change vs veh, NDUFAF7 / RFU, SLC12A2 / Fold change vs veh, SLC12A2 / RFU, IBTK / Fold change vs veh, IBTK / RFU, ESF1 / Fold change vs veh, ESF1 / Fold change vs veh, TMEM50B / RFU, TAOK1 / Fold change vs veh, TAOK1 / RFU, ACBD3 / Fold change vs veh, ACBD3 / RFU, TMA16 / Fold change vs veh, TMA16 / RFU, RWDD3 / Fold change vs veh, RWDD3 / RFU, BCAT1 / Fold change vs veh, BCAT1 / RFU, EDEM3 / Fold change vs veh, EDEM3 / RFU, TMEM33 / Fold change vs veh, TMEM33 / RFU, WDR75 / Fold change vs veh, WDR75 / RFU, AHCTF1 / Fold change vs veh, AHCTF1 / RFU, TFRC / Fold change vs veh, TFRC / RFU, ZDHHC17 / Fold change vs veh, ZDHHC17 / RFU, NOM1 / Fold change vs veh, NOM1 / RFU, ARL8B / Fold change vs veh, ARL8B / RFU, ZBTB11 / Fold change vs veh, ZBTB11 / RFU, TAMM41 / Fold change vs veh, TAMM41 / RFU, KIAA1704 /// LOC100996395 / Fold change vs veh, KIAA1704 /// LOC100996395 / RFU, ING1 / Fold change vs veh, ING1 / RFU, TRMT61B / Fold change vs veh, TRMT61B / RFU, FUBP3 / Fold change vs veh, FUBP3 / RFU, TP53 / Fold change vs veh, TP53 / RFU, TNKS2 / Fold change vs veh, TNKS2 / RFU, ZFP14 / Fold change vs veh, ZFP14 / RFU, ACTR2 / Fold change vs veh, ACTR2 / RFU, PPP3R1 / Fold change vs veh, PPP3R1 / RFU, PIK3R1 / Fold change vs veh, PIK3R1 / RFU, HNRNPA1 / Fold change vs veh, HNRNPA1 / RFU, RNF170 / Fold change vs veh, RNF170 / RFU, ZNF28 / Fold change vs veh, ZNF28 / RFU, RNGTT / Fold change vs veh, RNGTT / RFU, OGT / Fold change vs veh, OGT / RFU, BRD1 / Fold change vs veh, BRD1 / RFU, MARS / Fold change vs veh, MARS / RFU, ZNF655 / Fold change vs veh, ZNF655 / RFU, FAHD1 / Fold change vs veh, FAHD1 / RFU, BDP1 / Fold change vs veh, BDP1 / RFU, LRRCC1 / Fold change vs veh, LRRCC1 / RFU, ARID1A / Fold change vs veh, ARID1A / RFU, ZNF146 / Fold change vs veh, ZNF146 / RFU, ZNF330 / Fold change vs veh, ZNF330 / RFU, GPN3 / Fold change vs veh, GPN3 / RFU, C9orf123 / Fold change vs veh, C9orf123 / RFU, N4BP2L2 / Fold change vs veh, N4BP2L2 / RFU, ARFIP1 / Fold change vs veh, ARFIP1 / RFU, FAM179B / Fold change vs veh, FAM179B / RFU, BCL10 / Fold change vs veh, BCL10 / RFU, UHRF1BP1L / Fold change vs veh, UHRF1BP1L / RFU, BET1 / Fold change vs veh, BET1 / RFU, CNOT2 / Fold change vs veh, CNOT2 / RFU, ZNF268 / Fold change vs veh, ZNF268 / Fold change vs veh, ZNF507 / RFU, DGCR2 / Fold change vs veh, DGCR2 / RFU, WDSUB1 / Fold change vs veh, WDSUB1 / Fold change vs veh, HSP90B1 /// MIR3652 / RFU, ADSS / Fold change vs veh, ADSS / RFU, GK / Fold change vs veh, GK / RFU, ZNF148 / Fold change vs veh, ZNF148 / RFU, TAF9 / Fold change vs veh, TAF9 / RFU, SLC1A5 / Fold change vs veh, SLC1A5 / RFU, SLMO2 / Fold change vs veh, SLMO2 / RFU, ABCC4 / Fold change vs veh, ABCC4 / RFU, LOC101060439 /// RAP1B / Fold change vs veh, LOC101060439 /// RAP1B / RFU, RFX7 / Fold change vs veh, RFX7 / RFU, GTPBP10 / Fold change vs veh, GTPBP10 / RFU, CNEP1R1 / Fold change vs veh, CNEP1R1 / RFU, BIVM-ERCC5 /// ERCC5 / Fold change vs veh, BIVM-ERCC5 /// ERCC5 / RFU, ILF3 / Fold change vs veh, ILF3 / RFU 11762660_at / Fold change /veh 11762660_at / RFU VCAN (11757783_s_at) / Fold change /veh VCAN (11757783_s_at) / RFU DDX43 (11728927_at) / Fold change /veh DDX43 (11728927_at) / RFU KRT8 (11758188_x_at) / Fold change /veh KRT8 (11758188_x_at) / RFU NKD1 (11759106_at) / Fold change /veh NKD1 (11759106_at) / RFU SRD5A1 (11742802_a_at) / Fold change /veh SRD5A1 (11742802_a_at) / RFU TPSAB1 /// TPSB2 (11721975_s_at) / Fold change /veh TPSAB1 /// TPSB2 (11721975_s_at) / RFU GSTM3 (11746129_a_at) / Fold change /veh GSTM3 (11746129_a_at) / RFU IL23R (11737362_x_at) / Fold change /veh IL23R (11737362_x_at) / RFU TMEM51 (11727254_a_at) / Fold change /veh TMEM51 (11727254_a_at) / RFU PIWIL2 (11732686_x_at) / Fold change /veh PIWIL2 (11732686_x_at) / RFU ORM1 (11744905_x_at) / Fold change /veh ORM1 (11744905_x_at) / RFU CCDC152 (11743942_at) / Fold change /veh CCDC152 (11743942_at) / RFU ECM1 (11717891_a_at) / Fold change /veh ECM1 (11717891_a_at) / RFU IL23R (11748794_a_at) / Fold change /veh IL23R (11748794_a_at) / RFU TNFAIP8L3 (11732012_x_at) / Fold change /veh TNFAIP8L3 (11732012_x_at) / RFU MBOAT4 (11741988_at) / Fold change /veh MBOAT4 (11741988_at) / RFU 11764193_at / Fold change /veh 11764193_at / RFU TMEM53 (11763286_at) / Fold change /veh TMEM53 (11763286_at) / RFU MAGEB2 (11727129_at) / Fold change /veh MAGEB2 (11727129_at) / RFU TMEM200A (11744735_a_at) / Fold change /veh TMEM200A (11744735_a_at) / RFU CCDC152 (11751479_a_at) / Fold change /veh CCDC152 (11751479_a_at) / RFU FAM211A (11726209_a_at) / Fold change /veh FAM211A (11726209_a_at) / RFU RGS16 (11746705_a_at) / Fold change /veh RGS16 (11746705_a_at) / RFU VCAN (11755009_s_at) / Fold change /veh VCAN (11755009_s_at) / RFU RHOB (11743442_s_at) / Fold change /veh RHOB (11743442_s_at) / RFU RGS16 (11720943_a_at) / Fold change /veh RGS16 (11720943_a_at) / RFU RGS16 (11720944_at) / Fold change /veh RGS16 (11720944_at) / RFU, VPS4B / Fold change vs veh, VPS4B / RFU, CREB1 / Fold change vs veh, CREB1 / RFU, DNAJC13 / Fold change vs veh, DNAJC13 / RFU, GNAQ / Fold change vs veh, GNAQ / RFU, CDK5R1 / Fold change vs veh, CDK5R1 / RFU, ZRANB3 / Fold change vs veh, ZRANB3 / RFU, CUL4A / Fold change vs veh, CUL4A / RFU, CCNY / Fold change vs veh, CCNY / RFU, UFL1 / Fold change vs veh, UFL1 / RFU, COG3 / Fold change vs veh, COG3 / RFU, DIAPH2 / Fold change vs veh, DIAPH2 / RFU, SKA2 / Fold change vs veh, SKA2 / RFU, AFF3 / Fold change vs veh, AFF3 / RFU, LMF1 / Fold change vs veh, LMF1 / RFU, IPO11 / Fold change vs veh, IPO11 / RFU, DFFB / Fold change vs veh, DFFB / RFU, FOXP1 / Fold change vs veh, FOXP1 / RFU, CARD8 / Fold change vs veh, CARD8 / RFU, STRN3 / Fold change vs veh, STRN3 / RFU, ADK / Fold change vs veh, ADK / RFU, RASSF2 / Fold change vs veh, RASSF2 / RFU, WIPF1 / Fold change vs veh, WIPF1 / RFU, LARP1B / Fold change vs veh, LARP1B / RFU, RASA1 / Fold change vs veh, RASA1 / RFU, RB1 / Fold change vs veh, RB1 / RFU, PPFIA1 / Fold change vs veh, PPFIA1 / RFU, MAT2A / Fold change vs veh, MAT2A / RFU, CCT5 / Fold change vs veh, CCT5 / RFU, WDR92 / Fold change vs veh, WDR92 / RFU, CUX1 / Fold change vs veh, CUX1 / RFU, TTC7A / Fold change vs veh, TTC7A / RFU, TMEM135 / Fold change vs veh, TMEM135 / RFU, DEPTOR / Fold change vs veh, DEPTOR / RFU, CPM / Fold change vs veh, CPM / RFU, DNAJB6 / Fold change vs veh, DNAJB6 / RFU, CACNA2D3 / Fold change vs veh, CACNA2D3 / RFU, DTX4 / Fold change vs veh, DTX4 / RFU, TFCP2 / Fold change vs veh, TFCP2 / RFU, GMCL1 /// GMCL1P1 / Fold change vs veh, GMCL1 /// GMCL1P1 / RFU, AEBP2 / Fold change vs veh, AEBP2 / RFU, SNHG1 /// SNORD22 /// SNORD25 /// SNORD26 /// SNORD27 /// SNORD28 /// SNORD29 /// SNORD31 / Fold change vs veh, SNHG1 /// SNORD22 /// SNORD25 /// SNORD26 /// SNORD27 /// SNORD28 /// SNORD29 /// SNORD31 / Fold change (Aza/veh), C12orf56 (ProbeSet 11735607_a_at) / Fold change (ACY-1035/veh), C12orf56 (ProbeSet 11735607_a_at) / Fold change (Aza/veh), FGFR1OP (ProbeSet 11751329_s_at) / Fold change (ACY-1035/veh), FGFR1OP (ProbeSet 11751329_s_at) / Fold change (Aza/veh), VPS36 (ProbeSet 11739960_a_at) / Fold change (ACY-1035/veh), VPS36 (ProbeSet 11739960_a_at) / RFU SYPL1 (11715823_x_at) / Fold change /veh SYPL1 (11715823_x_at) / RFU IGFBP7 (11715501_s_at) / Fold change /veh IGFBP7 (11715501_s_at) / RFU REEP3 (11722064_at) / Fold change /veh REEP3 (11722064_at) / RFU IGLL1 (11728026_x_at) / Fold change /veh IGLL1 (11728026_x_at): dose or concentration left out as unconfirmed
Settings: MV-4-11 cells, 48 hours

For `Nc1ncn([C@@H]2O[C@H](CO)[C@@H](O)[C@H]2O)c(=O)n1` [azacitidine], the “RFU TMEM53 (11763286_at)” value was 26.80 RFU.
